The test system of series [1] is model of sarcopenia caused by aging. As to the kind of experiment: Aging animal model, 24-month-old mice, oxiracetam per concentration (Experimental Example 3). Format: in vivo, C57BL/6J mice. The source says:
For an experimental group in the present invention, oxiracetam having a structure of Formula 1 was purchased from Tokyo Chemical Industry (Japan; Product No. 00398, CAS RN:62613-82-5, purity: 96%) and used.
As a model of sarcopenia caused by aging, 24-month-old male C57BL/6J mice were used. Until the day of the experiment, general feed (EEGJ30060: Cargill Agri Purina, Seongnam, Korea) and water were sufficiently supplied to the experimental animals, and the animals were acclimated for 1 week under an environment of a temperature of 23±2° C., a humidity of 55±10%, and a light-dark cycle of 12 hours-12 hours and used in the experiment.
The animals were randomly divided into groups of 10 animals, such as a control (vehicle, n=10), and 42, 83, 167, 333 mg/kg/day oxiracetam-administered groups (n=10 per concentration). To the oxiracetam-administered group, oxiracetam was orally administered using a Zonde needle for 93 days once a day at a dose of 42, 83, 167, or 333 mg/kg/day. During the same period, no drug was administered to the control group, and 100 μL of normal saline was orally administered at one time.
To measure grip strength, a grip strength test was performed. The maximum force presented when the forelimbs of an animal model of each group could no longer hold the rod by pulling the tail horizontally while holding the tail of the animal model and holding the rod of a device with both front paws was considered to be grip strength (N). The grip strength was measured once every 3 days, and after repeating five measurements at one time, the average value was shown. Grip strength adaptation training was performed at least three times before drug administration.
The lean body mass for the gastrocnemius muscle (GS) and tibialis anterior (TA) for each group was measured every 7 days. Specifically, animal models of each group were anesthetized using 3% isoflurane, fixed to a photographing bed, and then photographed. The respiration rates and temperatures of the animal models during photographing were measured using an animal monitoring system (SA Instruments, USA).
The whole body of the animal model was photographed through dual energy X-ray absorptiometry (DEXA) using iNSiGHT VET DXA (Osteosys, KR), and the lean body mass of each of the gastrocnemius muscle (GS) and the tibialis anterior (TA) was measured and calculated from the two-dimensional images of the gastrocnemius muscle (GS) and the tibialis anterior (TA) by a program using the region of interest (ROI).
Statistical processing was performed using GraphPad Prism (GraphPad Software Inc., San Diego, CA, USA). The results of each repeated experiment were expressed as mean±standard error of mean, and analyzed using the analysis of variance (Tukey's test), and statistical significance was acknowledged when the P-value was 0.05 or less.

For series [2], the system named is DMD animal model. As to the kind of experiment: Duchenne muscular dystrophy animal model (Experimental Example 6). Format: in vivo, mice (C57BL/10 ScSn-Dmdmdx/J). The note with it: mdx mice, oxiracetam 30 mg/kg oral daily 35 days. The protocol: As experimental animals, 23-week-old male mice (C57BL/10 ScSn-Dmdmdx/J) were purchased from the Jackson Laboratory (USA) to conduct experiments. All animals were maintained under conditions of a temperature of 23±2° C. and a relative humidity of 55±10%. Before the initiation of the experiment, a total of 20 mice were randomly divided into groups of 10 animals. After adaptation for 1 week, 30 mg/kg of oxiracetam of Example 1 was orally administered daily for 35 days (drug-administered group, oxiracetam). Here, for the control (vehicle), instead of a sample, normal saline was orally administered.
For statistical analysis of the experiment, significant differences in mean values between groups were confirmed using a paired t-test, and p<0.05 is denoted as *, p<0.01 is denoted as **, p<0.001 is denoted as ***, and no significant difference is denoted as N.S. An error bar represents S.E.M.
Total lean body mass, body fat content (fat, %), the lean body mass of the gastrocnemius muscle (GS), and the lean body mass of the tibialis anterior (TA) were analyzed by dual energy X-ray absorptiometry (DEXA) every 7 days from the first day (day 0) of oral administration. Specifically, animal models of each group were anesthetized using 3% isoflurane, fixed to a photographing bed and then photographed. During photographing, the respiratory rates and body temperatures of the animal models were measured with an animal monitoring system (SA Instruments, USA).
The whole body of the animal model was photographed through dual energy X-ray absorptiometry (DEXA) using iNSiGHT VET DXA (Osteosys, KR), and the total lean body mass and the body fat content (fat, %) were analyzed. In addition, from the photographed images, the two-dimensional images of the gastrocnemius muscle (GS) and the tibialis anterior (TA) were assigned to the region of interest (ROI) using a program, and the lean body mass of each of the gastrocnemius muscle (GS) and the tibialis anterior (TA) was measured and calculated. Since the DEXA image can be used to measure and analyze the lean body mass, fat, and bone density of a mouse, it is possible to measure and calculate not only detailed lean body mass but also total lean body mass and body fat content (fat, %).
Grip strength was measured every 2 days from the first day (day 0) of oral administration. The measurement of the grip strength was performed using a grip strength meter for mice (BIOSEB), a mouse was placed on a wire mesh attached to a gauge capable of monitoring the strength, and the tail of the mouse was pulled downward to measure a force of grabbing the wire mesh. The average value was recorded by repeating measurement five consecutive times.
Body weights were measured every day from the first day (day 0) of oral administration.

[3] abbreviates: Oxi 42, 83, 167 and 333 mg/kg/day, DEXA every 7 days, compared to control.
The mark [4] stands for this setting: Oxi 333 group (333 mg/kg/day), among dose groups.
Setting [5] is: day 35, compared to control (vehicle).

Here are results for one molecule from patent US20240050406A1, “COMPOSITION COMPRISING OXIRACETAM FOR PREVENTING OR TREATING MUSCULAR DISEASE” (KSB TUGEN INC., priority 2021, published 2024).

SMILES strings stand for the structures.

For the molecule `NC(=O)CN1CC(O)CC1=O` (racemic) [oxiracetam, (RS)-2-(4-hydroxy-2-oxopyrrolidin-1-yl)acetamide], the “dose dependence of the effect on grip strength” value in series [1] (42-333 mg/kg/day oral 93 days) is listed as “increases in a concentration-dependent manner”. Also, in series [1] (Oxi 42, 83, 167 and 333 mg/kg/day oral 93 days, versus control (vehicle)), the “change in grip strength (decrease in grip strength)” value is “significantly inhibited and rather increased”. Besides, in series [1] (setting [3]), the “lean body mass of the gastrocnemius muscle (GS)” value (“lean body mass … (GS)” for short) is “rather significantly increased” and the “lean body mass of the tibialis anterior (TA)” value (from here on “lean body mass … (TA)”) is “rather significantly increased”. Further, in series [1] (setting [4]), the “lean body mass … (GS)” value is on record as “greatest increase” and the “lean body mass … (TA)” value is on record as “greatest increase”. Moreover, in series [2], the “change in body weight” value is “does not exhibit a significant effect”, the “change in grip strength” value is listed as “significantly increased” and the “pseudohypertrophy (characteristic symptom of DMD)” value is given as “reduced”. Moreover, in series [2] (compared to control), the “lean body mass … (GS)” value was “significantly increased” and the “lean body mass … (TA)” value was “significantly increased”. For the same molecule, in series [2] (setting [5]), the “body fat mass (fat, %)” value is on record as “significantly reduced” and the “total lean body mass” value is reported as “significantly increased”.
